Results taken from patent publication US20070010556A1, “Thiophene derivatives as chk 1 inhibitors” (ASTRAZENECA AB, priority 2004, published 2007).

Target: T1, CHK1 kinase (Homo sapiens, UniProt O14757)
T1 construct: The kinase domain is expressed in baculovirus and purified by the GST tag; GST; made in house
T1 sequence (O14757 9-265 limits assumed): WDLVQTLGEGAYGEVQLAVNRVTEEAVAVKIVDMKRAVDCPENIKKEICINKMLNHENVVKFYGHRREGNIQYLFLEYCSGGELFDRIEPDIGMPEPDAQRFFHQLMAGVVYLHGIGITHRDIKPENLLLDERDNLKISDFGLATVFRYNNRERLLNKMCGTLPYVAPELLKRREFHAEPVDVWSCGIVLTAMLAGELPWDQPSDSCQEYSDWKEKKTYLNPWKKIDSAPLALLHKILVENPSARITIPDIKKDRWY
Test: Checkpoint Kinase 1 Assay (Scintillation Proximity Assay)
Assay type: biochemical
Experimental: Checkpoint Kinase 1 Assay: This in vitro assay measures the inhibition of CHK1 kinase by compounds. The kinase domain is expressed in baculovirus and purified by the GST tag. Purified protein and biotinylated peptide substrate (Cdc25C) is then used in a 384 well automated Scintillation Proximity Assay (SPA). Specifically, peptide, enzyme and reaction buffer are mixed and aliquoted into a 384 well plate containing dilution series of compounds and controls. Cold and hot ATP are then added to initiate the reaction. After 2 hours, a SPA bead slurry, […] and EDTA are added to stop the reaction and capture the biotinylated peptide. Plates are then counted on a Topcount. Data is analyzed and IC50s determined for individual compounds.

IC50 | SMILES
0.14 nM | COc1ccc(F)cc1-c1cc(C(=O)N[C@H]2CCCCNC2)c(NC(N)=O)s1 [Example 97]
0.12 nM | O=C(Nc1cnccn1)Nc1cc(-c2ccc(Cl)cc2)sc1C(=O)N[C@H]1CCCNC1 [Example 263, 5-(4-Chloro-phenyl)-3-(3-pyrazin-2-yl-ureido)-thiophene-2-carboxylic acid (S)-piperidin-3-ylamide]
